The source of these data is patent US20070010489A1 (priority 2002, published 2007).

In the first assay the test system is wild-type HIV-1 strain IIIB. Kind of assay: microbe, parasite or virus in culture. To be noted: Human immunodeficiency virus 1, IIIB. The assay is classed as cell-based.
On to `CC(C)CN(C[C@@H](O)[C@H](Cc1ccccc1)NC(=O)O[C@H]1CO[C@H]2OCC[C@H]21)S(=O)(=O)c1ccc(OCP(=O)(Oc2ccccc2)O[C@@H](C)C(=O)OC(C)C)cc1` (stereo partly drawn) [OPh, Lac-iPr], for which the concentration giving a half-maximal response (EC50) (in general, the midpoint of the concentration-response curve) is 500 to 5000 nM.

In turn, `CC(C)CN(C[C@@H](OP(=O)(O)O)[C@H](Cc1ccccc1)NC(=O)O[C@H]1CCOC1)S(=O)(=O)c1ccc(N)cc1` [Phosphate Prodrug of Ampenavir] yielded an EC50 of 50 to 500 nM.

`CCOP(=O)(CNc1ccc(CC(NC(=O)OC2COC3OCCC23)C(O)CN(CC(C)C)S(=O)(=O)c2ccc(OC)cc2)cc1)OCC` (stereo not drawn) gave an EC50 of less than 50 nM.

In turn, `CC(C)CN(CC(O)C(Cc1ccccc1)NC(=O)OC1COC2OCCC12)S(=O)(=O)c1cccc(O)c1` (stereo not drawn) displayed an EC50 of less than 50 nM.

`CC(C)CN(CC(O)C(Cc1ccc(OCP(=O)(OCc2ccccc2)OCc2ccccc2)cc1)NC(=O)OC1COC2OCCC12)S(=O)(=O)c1ccc(N)cc1` (stereo not drawn) gave an EC50 of less than 50 nM.

Compound `CCOP(=O)(COc1ccc(S(=O)(=O)N(CC(C)C)CC(O)C(Cc2ccc(N(C)C)cc2)NC(=O)OC2COC3OCCC23)cc1)OCC` (stereo not drawn) [NMe2, OEt] came in with an EC50 of less than 50 nM.

For `COc1ccc(S(=O)(=O)N(CC(C)C)CC(O)C(Cc2ccc(P(=O)(O)O)cc2)NC(=O)OC2COC3OCCC23)cc1` (stereo not drawn) [drawing 1770 R1=OH R2=OH], the EC50 is more than 5000 nM.

On to `COc1ccc(S(=O)(=O)N(CC(C)C)CC(O)C(Cc2ccc(NCP(=O)(OCc3ccccc3)OCc3ccccc3)cc2)NC(=O)OC2COC3OCCC23)cc1` (stereo not drawn), for which the EC50 was less than 50 nM.

`CC(C)CN(CC(O)C(Cc1ccc(OCCN(C)C)cc1)NC(=O)OC1COC2OCCC12)S(=O)(=O)c1ccc(OCP(=O)(O)O)cc1` (stereo not drawn) [OC2H4NMe2, OH] had an EC50 of 500 to 5000 nM.

In turn, `COc1ccc(S(=O)(=O)N(CC(C)C)CC(O)C(CC2=CCN(CCP(=O)(OCc3ccccc3)OCc3ccccc3)CC2)NC(=O)OC2COC3OCCC23)cc1` (stereo not drawn) returned an EC50 of less than 50 nM.

Take `CC(C)CN(CC(O)C(Cc1ccccc1)NC(=O)OC1COC2OCCC12)S(=O)(=O)c1cccc(OCP(=O)(O)O)c1` (stereo not drawn): the EC50 lay within 50 to 500 nM.

`CCOP(=O)(Cc1ccc(NCC(NC(=O)OC2COC3OCCC23)C(O)CN(CC(C)C)S(=O)(=O)c2ccc(OC)cc2)cc1)OCC` (stereo not drawn) yielded an EC50 of less than 50 nM.

`COc1ccc(S(=O)(=O)N(CC(C)C)CC(O)C(Cc2ccccc2)NC(=O)OC2COC3OCCC23)cc1O` (stereo not drawn) showed an EC50 of less than 50 nM.

With `CCOP(=O)(CCC1=CCN(CC(NC(=O)OC2COC3OCCC23)C(O)CN(CC(C)C)S(=O)(=O)c2ccc(OC)cc2)CC1)OCC` (stereo not drawn), the EC50 is less than 50 nM.

The compound `CC(C)CN(CC(O)C(Cc1ccc(O)cc1)NC(=O)OC1COC2OCCC12)S(=O)(=O)c1ccc(N)cc1` (stereo not drawn) [OH, p-NH2] yielded an EC50 of 50 to 500 nM.

The compound `CCOP(=O)(CCNCc1ccc(CC(NC(=O)OC2COC3OCCC23)C(O)CN(CC(C)C)S(=O)(=O)c2ccc(OC)cc2)cc1)OCC` (stereo not drawn) [drawing 1779 R1=Et R2=Et] displayed an EC50 of less than 50 nM.

In turn, `CC(C)CN(CC(O)C(Cc1ccc(OCP(=O)(OCc2ccccc2)OCc2ccccc2)cc1)NC(=O)OC1COC2OCCC12)S(=O)(=O)c1ccc(C#N)cc1` (stereo not drawn) came in with an EC50 of less than 50 nM.

On to `CC(C)CN(CC(O)C(Cc1ccc(OCCN(C)C)cc1)NC(=O)OC1COC2OCCC12)S(=O)(=O)c1ccc(OCP(=O)(OCc2ccccc2)OCc2ccccc2)cc1` (stereo not drawn) [OC2H4—NMe2, OBn], for which the EC50 lay in the range of 50 to 500 nM.

In turn, `COc1ccc(S(=O)(=O)N(CC(C)C)CC(O)C(CC2=CCN(CCP(=O)(OC)OC)CC2)NC(=O)OC2COC3OCCC23)cc1` (stereo not drawn) returned an EC50 of 50 to 500 nM.

In turn, `CCOP(=O)(COc1ccc(CC(NC(=O)OC2COC3OCCC23)C(O)CN(CC(C)C)S(=O)(=O)c2cccc(N)c2)cc1)OCC` (stereo not drawn) registered an EC50 of 50 to 500 nM.

`CCOP(=O)(COc1cc(S(=O)(=O)N(CC(C)C)CC(O)C(Cc2ccccc2)NC(=O)OC2COC3OCCC23)ccc1O)OCC` (stereo not drawn) registered an EC50 of 50 to 500 nM.

Compound `CC(C)CN(CC(O)C(Cc1ccc(OCP(=O)(OCc2ccccc2)OCc2ccccc2)cc1)NC(=O)OC1COC2OCCC12)S(=O)(=O)c1ccc(C(F)(F)F)cc1` (stereo not drawn) had an EC50 of less than 50 nM.

In the case of `CC(C)CN(CC(O)C(Cc1ccc(OCP(=O)(OCc2ccccc2)OCc2ccccc2)cc1)NC(=O)OC1COC2OCCC12)C(=O)OC(C)(C)C` (stereo not drawn), the EC50 was 50 to 500 nM.

Compound `CCOP(=O)(Cc1ccc2c(c1)CCN(CC(NC(=O)OC1COC3OCCC13)C(O)CN(CC(C)C)S(=O)(=O)c1ccc(OC)cc1)C2)OCC` (stereo not drawn) yielded an EC50 of less than 50 nM.

Take `COc1ccc(S(=O)(=O)N(CC2CCN(C=O)CC2)CC(O)C(Cc2ccc(OCP(=O)(OCc3ccccc3)OCc3ccccc3)cc2)NC(=O)OC2COC3OCCC23)cc1` (stereo not drawn): the EC50 is 50 to 500 nM.

`CCOP(=O)(COc1ccc(CC(NC(=O)OC2COC3OCCC23)C(O)CN(CC(C)C)S(=O)(=O)c2ccc(N)cc2)cc1)OCC` (stereo not drawn): the EC50 was less than 50 nM.

In the case of `CC(C)CN(CC(O)C(Cc1ccc(O)cc1)NC(=O)OC1COC2OCCC12)S(=O)(=O)c1ccc(OCP(=O)(OCc2ccccc2)OCc2ccccc2)cc1` (stereo not drawn) [OH, OBn], the EC50 was 50 to 500 nM.

In the case of `CC(C)CN(CC(O)C(Cc1ccc(OCP(=O)(OCc2ccccc2)OCc2ccccc2)cc1)NC(=O)OC1COC2OCCC12)S(=O)(=O)c1ccc(OC(F)(F)F)cc1` (stereo not drawn), the EC50 is less than 50 nM.

Compound `CC(C)CN(CC(O)C(Cc1ccccc1)NC(=O)OC1COC2OCCC12)S(=O)(=O)c1ccc(O)cc1` (stereo not drawn) displayed an EC50 of less than 50 nM.

Regarding `CCCCOC(=O)C(C)OP(=O)(COc1ccc(CC(NC(=O)OC2COC3OCCC23)C(O)CN(CC(C)C)S(=O)(=O)c2cccc(N)c2)cc1)Oc1ccccc1` (stereo not drawn), the EC50 fell in the range of 50 to 500 nM.

With `CCOP(=O)(CN1CC=C(CC(NC(=O)OC2COC3OCCC23)C(O)CN(CC(C)C)S(=O)(=O)c2ccc(OC)cc2)CC1)OCC` (stereo not drawn), the EC50 is less than 50 nM.

`CC(C)CN(CC(O)C(Cc1ccc(OCP(=O)(OCc2ccccc2)OCc2ccccc2)cc1)NC(=O)OC1COC2OCCC12)S(=O)(=O)N1CCN(C)CC1` (stereo not drawn) registered an EC50 of 50 to 500 nM.

For the compound `Cc1ccc(C(=O)NC(Cc2ccc(OCP(=O)(OCc3ccccc3)OCc3ccccc3)cc2)C(O)CN(CC(C)C)S(=O)(=O)c2ccc(N)cc2)cc1O` (stereo not drawn), the EC50 lay in the range of 50 to 500 nM.

Consider `CC(C)CN(CC(O)C(Cc1ccc(O)cc1)NC(=O)OC1COC2OCCC12)S(=O)(=O)c1cccc(N)c1` (stereo not drawn) [OH, m-NH2], for which the EC50 was in the range of 50 to 500 nM.

Compound `COc1ccc(S(=O)(=O)N(CC(C)C)CC(O)C(Cc2ccc(OCP(=O)(OCc3ccccc3)OC(C)C(=O)OCc3ccccc3)cc2)NC(=O)OC2COC3OCCC23)cc1` (stereo not drawn) [drawing 1775 R1=OBn R2=Lac-Bn] came in with an EC50 of 50 to 500 nM.

Regarding `COc1ccc(S(=O)(=O)N(CCN2CCOCC2)CC(O)C(Cc2ccc(OCP(=O)(OCc3ccccc3)OCc3ccccc3)cc2)NC(=O)OC2COC3OCCC23)cc1` (stereo not drawn), the EC50 was in the range of 50 to 500 nM.

In the case of `CCOP(=O)(CCN1CCN(CC(NC(=O)OC2COC3OCCC23)C(O)CN(CC(C)C)S(=O)(=O)c2ccc(OC)cc2)CC1)OCC` (stereo not drawn), the EC50 is 50 to 500 nM.

As to `CCOP(=O)(CON=Cc1ccc(CC(NC(=O)OC2COC3OCCC23)C(O)CN(CC(C)C)S(=O)(=O)c2ccc(OC)cc2)cc1)OCC` (stereo not drawn) [drawing 1781 R1=Et R2=Et], the EC50 is less than 50 nM.

On to `COc1ccc(S(=O)(=O)N(CC(C)C)CC(O)C(CNc2ccc(CP(=O)(OCc3ccccc3)OCc3ccccc3)cc2)NC(=O)OC2COC3OCCC23)cc1` (stereo not drawn), for which the EC50 was less than 50 nM.

`CCNc1ccc(S(=O)(=O)N(CC(C)C)CC(O)C(Cc2ccc(OCP(=O)(OCC)OCC)cc2)NC(=O)OC2COC3OCCC23)cc1` (stereo not drawn) registered an EC50 of less than 50 nM.

Turning to `CCOP(=O)(COc1cc(S(=O)(=O)N(CC(C)C)CC(O)C(Cc2ccccc2)NC(=O)OC2COC3OCCC23)ccc1OC)OCC` (stereo not drawn), the EC50 fell in the range of 50 to 500 nM.

The compound `CC(C)CN(CC(O)C(Cc1ccc(OCP(=O)(OCc2ccccc2)OCc2ccccc2)cc1)NC(=O)OC1COC2OCCC12)S(=O)(=O)c1cccc(N)c1` (stereo not drawn) had an EC50 of less than 50 nM.

The compound `CCOP(=O)(COc1ccc(CC(NC(=O)OC2COC3OCCC23)C(O)CN(CC(C)C)S(=O)(=O)c2ccc([N+](=O)[O-])cc2)cc1)OCC` (stereo not drawn) gave an EC50 of less than 50 nM.

Regarding `CC(C)CN(CC(O)C(Cc1ccc(OCP(=O)(OCc2ccccc2)OCc2ccccc2)cc1)NC(=O)OC1COC2OCCC12)S(=O)(=O)c1ccc(F)cc1` (stereo not drawn), the EC50 is less than 50 nM.

Staying with this assay, now noted: Human immunodeficiency virus 1, IIIB, MT2, 120 h, read-out: Anti-HIV-1 Cell Culture Activity EC50.
In the case of `CCCCOC(=O)CNP(=O)(COc1ccc(CC(NC(=O)OC2COC3OCCC23)C(O)CN(CC(C)C)S(=O)(=O)c2ccc(OC)cc2)cc1)NCC(=O)OCCCC` (stereo not drawn) [Compound 16b], the EC50 was determined as 17.5 ± 10.5 nM.

Still in this assay, the particulars now being: Human immunodeficiency virus 1, IIIB, class symbols.
Turning to `CCOC(=O)C(C)OP(=O)(COc1ccc2c(c1)CCN(CC(NC(=O)OC1COC3OCCC13)C(O)CN(CC(C)C)S(=O)(=O)c1ccc(OC)cc1)C2)Oc1ccccc1` (stereo not drawn), the EC50 fell in the range of 50 to 500 nM.

For `COC(=O)C(C)OP(=O)(COc1ccc(CC(NC(=O)OC2COC3OCCC23)C(O)CN(CC(C)C)S(=O)(=O)c2ccc(OC)cc2)cc1)Oc1ccccc1` [drawing 1775 R1=OPh R2=(R)Lac-Me], the EC50 was less than 50 nM.

`COc1ccc(S(=O)(=O)N(CC(C)C)CC(O)C(Cc2ccc(NCP(=O)(NC(C)C(=O)OC(C)C)Oc3ccccc3)cc2)NC(=O)OC2COC3OCCC23)cc1` (stereo not drawn) [drawing 1820] had an EC50 of less than 50 nM.

Staying with this assay, now noted: class symbols.
In turn, `COc1ccc(S(=O)(=O)N(CC(C)C)CC(O)C(Cc2ccc(NCP(=O)(NC(C)C(=O)OC(C)C)Oc3ccccc3)cc2)NC(=O)OC2COC3OCCC23)cc1` (stereo not drawn) [drawing 1821] gave an EC50 of 50 to 500 nM.

Consider `COc1ccc(S(=O)(=O)N(CC(C)C)CC(O)C(Cc2ccc(NCP(=O)(NC(C)C(=O)OC(C)C)Oc3ccccc3)cc2)NC(=O)OC2COC3OCCC23)cc1` (stereo not drawn) [drawing 1822], for which the EC50 was less than 50 nM.

Still in this assay, the particulars now being: read-out: Anti-HIV-1 Cell Culture Activity EC50.
For the compound `COc1ccc(S(=O)(=O)N(CC(C)C)CC(O)C(Cc2ccc(OCP(=O)(O)NC(C)C(=O)O)cc2)NC(=O)OC2COC3OCCC23)cc1` (stereo not drawn) [Met X], the EC50 was more than 10000 nM.

For `CCCCOC(=O)C(CC(C)C)NP(=O)(COc1ccc(CC(NC(=O)OC2COC3OCCC23)C(O)CN(CC(C)C)S(=O)(=O)c2ccc(OC)cc2)cc1)NC(CC(C)C)C(=O)OCCCC` (stereo not drawn) [Example 16h], the EC50 worked out at 120 ± 42 nM.

On to `CCOC(=O)C(C)OP(=O)(O)COc1ccc(CC(NC(=O)OC2COC3OCCC23)C(O)CN(CC(C)C)S(=O)(=O)c2ccc(OC)cc2)cc1` (stereo not drawn) [Met LX], for which the EC50 turned out to be 1750 ± 354 nM.

On to `CCOC(=O)C(Cc1ccccc1)NP(=O)(COc1ccc(CC(NC(=O)OC2COC3OCCC23)C(O)CN(CC(C)C)S(=O)(=O)c2ccc(OC)cc2)cc1)NC(Cc1ccccc1)C(=O)OCC` (stereo not drawn) [Example 16i], for which the EC50 was 17 ± 12 nM.
